From ChEMBL document CHEMBL1201861, “Genomics of Drug Sensitity in Cancer screening data, Wellcome Trust Sanger Institute”
pIC50: −log10 of the molar value.

Key:
[1] = system: CWR22R; assay: cells; assay type: functional, cell-based, Homo sapiens; details: Homo sapiens, 22Rv1;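 also: growth inhibition of 22Rv1 cells, read out with a cell viability assay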
Description: SANGER: Inhibition of human 22RV1 cell growth in a cell viability assay.

[2] = system: BL-41; assay: cells; assay type: functional, cell-based, Homo sapiens; details: Homo sapiens, BL-41;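 also: growth inhibition of human BL-41 cells, read out with a cell viability assay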
Description: SANGER: Inhibition of human BL-41 cell growth in a cell viability assay.

[3] = system: MDA-MB-134-VI; assay: cells; assay type: functional, cell-based, Homo sapiens; details: Homo sapiens, MDA-MB-134-VI
Description: SANGER: Inhibition of human MDA-MB-134-VI cell growth in a cell viability assay.

[4] = system: SW780; assay: cells; assay type: functional, cell-based, Homo sapiens; details: Homo sapiens, SW780;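 also: growth inhibition of the cells, read out with a cell viability assay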
Description: SANGER: Inhibition of human SW780 cell growth in a cell viability assay.

[5] = system: CHP-212; assay: cells; assay type: functional, cell-based, Homo sapiens; details: Homo sapiens, CHP-212
Description: SANGER: Inhibition of human CHP-212 cell growth in a cell viability assay.

[6] = system: CAL-62; assay: cells; assay type: functional, cell-based, Homo sapiens; details: Homo sapiens, CAL-62;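 also: growth inhibition of CAL-62 cells, read out with a cell viability assay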
Description: SANGER: Inhibition of human CAL-62 cell growth in a cell viability assay.

[7] = system: MG-63; assay: cells; assay type: functional, cell-based, Homo sapiens; details: Homo sapiens, MG-63;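 also: growth inhibition of human MG-63 cells, read out with a cell viability assay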
Description: SANGER: Inhibition of human MG-63 cell growth in a cell viability assay.

[8] = system: EFM-19; assay: cells; assay type: functional, cell-based, Homo sapiens; details: Homo sapiens, EFM-19;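 also: growth inhibition of human EFM-19 cells, measured in a cell viability assay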
Description: SANGER: Inhibition of human EFM-19 cell growth in a cell viability assay.

[9] = system: HCC1937; assay: cells; assay type: functional, cell-based, Homo sapiens; details: Homo sapiens, HCC1937;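 also: growth inhibition measured with a cell viability read-out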
Description: SANGER: Inhibition of human HCC1937 cell growth in a cell viability assay.

[10] = system: HEC-1; assay: cells; assay type: functional, cell-based, Homo sapiens; details: Homo sapiens, HEC-1;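 also: growth inhibition of the cell line, read out with a cell viability assay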
Description: SANGER: Inhibition of human HEC-1 cell growth in a cell viability assay.

[11] = system: KYSE-450; assay: cells; assay type: functional, cell-based, Homo sapiens; details: Homo sapiens, KYSE-450;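 also: cell growth inhibition measured by a viability assay in human KYSE-450 cells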
Description: SANGER: Inhibition of human KYSE-450 cell growth in a cell viability assay.

[12] = system: NCI-H1793; assay: cells; assay type: functional, cell-based, Homo sapiens; details: Homo sapiens, NCI-H1793;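 also: cell growth inhibition, read out by a cell viability assay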
Description: SANGER: Inhibition of human NCI-H1793 cell growth in a cell viability assay.

[13] = system: OPM-2; assay: cells; assay type: functional, cell-based, Homo sapiens; details: Homo sapiens, OPM-2;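 also: growth of OPM-2 cells measured with a viability assay, IC50 for suppression of proliferation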
Description: SANGER: Inhibition of human OPM-2 cell growth in a cell viability assay.

[14] = system: NCI-H1522; assay: cells; assay type: functional, cell-based, Homo sapiens; details: Homo sapiens, NCI-H1522;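 also: growth inhibition of NCI-H1522 cells, read out with a cell viability assay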
Description: SANGER: Inhibition of human NCI-H1522 cell growth in a cell viability assay.

[15] = system: CAL-27; assay: cells; assay type: functional, cell-based, Homo sapiens; details: Homo sapiens, CAL-27;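 also: Viability-based readout, IC50 reflecting inhibition of CAL-27 cell growth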
Description: SANGER: Inhibition of human CAL-27 cell growth in a cell viability assay.

[16] = system: CESS; assay: SANGER: Inhibition of human CESS cell growth in a cell viability assay.; assay type: functional, cell-based; details: Homo sapiens, CESS
[17] = system: KYSE-140; assay: cells; assay type: functional, cell-based, Homo sapiens; details: Homo sapiens, KYSE-140;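 also: cell viability assay measuring growth inhibition in human KYSE-140 cells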
Description: SANGER: Inhibition of human KYSE-140 cell growth in a cell viability assay.

[18] = system: MDA-MB-231; assay: cells; assay type: functional, cell-based, Homo sapiens; details: Homo sapiens, MDA-MB-231
Description: SANGER: Inhibition of human MDA-MB-231 cell growth in a cell viability assay.

[19] = system: Ca9-22; assay: cells; assay type: functional, cell-based, Homo sapiens; details: Homo sapiens, Ca9-22;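 also: growth inhibition of Ca9-22 cells, read out with a cell viability assay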
Description: SANGER: Inhibition of human Ca9-22 cell growth in a cell viability assay.

[20] = system: GP5d; assay: cells; assay type: functional, cell-based, Homo sapiens; details: Homo sapiens, GP5d;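 also: growth inhibition of human GP5d cells, read out with a cell viability assay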
Description: SANGER: Inhibition of human GP5d cell growth in a cell viability assay.

[21] = system: HCC1599; assay: cells; assay type: functional, cell-based, Homo sapiens; details: Homo sapiens, HCC1599;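 also: growth inhibition of HCC1599 cells, read out in a cell viability assay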
Description: SANGER: Inhibition of human HCC1599 cell growth in a cell viability assay.

[22] = system: 769-P; assay: cells; assay type: functional, cell-based, Homo sapiens; details: Homo sapiens, 769-P
Description: SANGER: Inhibition of human 769-P cell growth in a cell viability assay.

[23] = system: LK-2; assay: cells; assay type: functional, cell-based, Homo sapiens; details: Homo sapiens, LK-2;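 also: growth inhibition of LK-2 cells, read out with a viability assay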
Description: SANGER: Inhibition of human LK-2 cell growth in a cell viability assay.

[24] = system: MeWo; assay: cells; assay type: functional, cell-based, Homo sapiens; details: Homo sapiens, MeWo;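 also: growth inhibition of MeWo cells, determined by a cell viability readout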
Description: SANGER: Inhibition of human Mewo cell growth in a cell viability assay.

[25] = system: PA-1; assay: cells; assay type: functional, cell-based, Homo sapiens; details: Homo sapiens, PA-1;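 also: IC50 for suppression of PA-1 cell proliferation, determined with a cell viability read-out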
Description: SANGER: Inhibition of human PA-1 cell growth in a cell viability assay.

[26] = system: GMS-10; assay: cells; assay type: functional, cell-based, Homo sapiens; details: Homo sapiens, GMS-10;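 also: growth inhibition of GMS-10 cells, read out as cell viability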
Description: SANGER: Inhibition of human GMS-10 cell growth in a cell viability assay.

[27] = system: CAL-39; assay: cells; assay type: functional, cell-based, Homo sapiens; details: Homo sapiens, CAL-39;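 also: cell viability assay measuring growth inhibition of CAL-39 cells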
Description: SANGER: Inhibition of human CAL-39 cell growth in a cell viability assay.

[28] = system: BL-70; assay: SANGER: Inhibition of human BL-70 cell growth in a cell viability assay.; assay type: functional, cell-based; details: Homo sapiens, BL-70
[29] = system: SK-MEL-30; assay: cells; assay type: functional, cell-based, Homo sapiens; details: Homo sapiens, SK-MEL-30;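 also: growth inhibition of SK-MEL-30 cells, determined with a cell viability assay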
Description: SANGER: Inhibition of human SK-MEL-30 cell growth in a cell viability assay.

[30] = system: WM-115; assay: cells; assay type: functional, cell-based, Homo sapiens; details: Homo sapiens, WM-115
Description: SANGER: Inhibition of human WM-115 cell growth in a cell viability assay.

[31] = system: NCI-H1693; assay: cells; assay type: functional, cell-based, Homo sapiens; details: Homo sapiens, NCI-H1693;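 also: growth inhibition of the human cell line, read out with a cell viability assay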
Description: SANGER: Inhibition of human NCI-H1693 cell growth in a cell viability assay.

[32] = system: SK-HEP1; assay: cells; assay type: functional, cell-based, Homo sapiens, SK-HEP-1; details: Homo sapiens, SK-HEP1;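 also: cell viability readout used to quantify reduction in proliferation of human SK-HEP-1 cells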
Description: SANGER: Inhibition of human SK-HEP-1 cell growth in a cell viability assay.

[33] = system: TE-15; assay: cells; assay type: functional, cell-based, Homo sapiens; details: Homo sapiens, TE-15;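 also: cell viability readout of growth inhibition in TE-15 cells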
Description: SANGER: Inhibition of human TE-15 cell growth in a cell viability assay.

[34] = system: SJRH30; assay: cells; assay type: functional, cell-based, Homo sapiens; details: Homo sapiens, SJRH30;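 also: growth inhibition of human SJRH30 cells, read out with a cell viability assay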
Description: SANGER: Inhibition of human SJRH30 cell growth in a cell viability assay.

[35] = system: CAL-51; assay: cells; assay type: functional, cell-based, Homo sapiens; details: Homo sapiens, CAL-51;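 also: human CAL-51 cell line, growth inhibition read out via a cell viability assay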
Description: SANGER: Inhibition of human CAL-51 cell growth in a cell viability assay.

[36] = system: HuP-T3; assay: cells; assay type: functional, cell-based, Homo sapiens; details: Homo sapiens, HuP-T3;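 also: HuP-T3 cell growth inhibition, read out with a cell viability assay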
Description: SANGER: Inhibition of human HuP-T3 cell growth in a cell viability assay.

[37] = system: DU-145; assay: cells; assay type: functional, cell-based, Homo sapiens; details: Homo sapiens, DU-145
Description: SANGER: Inhibition of human DU-145 cell growth in a cell viability assay.

[38] = system: SIMA; assay: cells; assay type: functional, cell-based, Homo sapiens; details: Homo sapiens, SIMA;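 also: growth inhibition of SIMA cells, measured with a cell viability readout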
Description: SANGER: Inhibition of human SIMA cell growth in a cell viability assay.

[39] = system: MONO-MAC-6; assay: cells; assay type: functional, cell-based, Homo sapiens; details: Homo sapiens, MONO-MAC-6;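 also: cell viability assay measuring growth inhibition of human MONO-MAC-6 cells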
Description: SANGER: Inhibition of human MONO-MAC-6 cell growth in a cell viability assay.

[40] = system: NCI-H1623; assay: cells; assay type: functional, cell-based, Homo sapiens; details: Homo sapiens, NCI-H1623;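 also: cell viability assay used as the read-out for growth inhibition of NCI-H1623 cells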
Description: SANGER: Inhibition of human NCI-H1623 cell growth in a cell viability assay.

[41] = system: MIA PaCa-2; assay: cells; assay type: functional, cell-based, Homo sapiens; details: Homo sapiens, MIA PaCa-2;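 also: growth inhibition of MIA PaCa-2 cells, read out with a cell viability assay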
Description: SANGER: Inhibition of human MIA-PaCa-2 cell growth in a cell viability assay.

[42] = system: HGC-27; assay: cells; assay type: functional, cell-based, Homo sapiens; details: Homo sapiens, HGC-27;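 also: growth inhibition of human HGC-27 cells, read out in a cell viability assay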
Description: SANGER: Inhibition of human HGC-27 cell growth in a cell viability assay.

[43] = system: SK-MEL-24; assay: cells; assay type: functional, cell-based, Homo sapiens; details: Homo sapiens, SK-MEL-24;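 also: growth inhibition read out by a cell viability assay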
Description: SANGER: Inhibition of human SK-MEL-24 cell growth in a cell viability assay.

[44] = system: M14; assay: cells; assay type: functional, cell-based, Homo sapiens; details: Homo sapiens, M14;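 also: growth inhibition of M14 cells, read out with a cell viability assay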
Description: SANGER: Inhibition of human M14 cell growth in a cell viability assay.

[45] = system: ECC4; assay: cells; assay type: functional, cell-based, Homo sapiens; details: Homo sapiens, ECC4;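 also: growth inhibition of ECC4 cells, read out with a cell viability assay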
Description: SANGER: Inhibition of human ECC4 cell growth in a cell viability assay.

[46] = system: LCLC-103H cell line; assay: cells; assay type: functional, cell-based, Homo sapiens; details: Homo sapiens, LCLC-103H
Description: SANGER: Inhibition of human LCLC-103H cell growth in a cell viability assay.

[47] = system: A673; assay: cells; assay type: functional, cell-based, Homo sapiens; details: Homo sapiens, A673;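 also: growth inhibition of human A673 cells, read out through a cell viability assay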
Description: SANGER: Inhibition of human A673 cell growth in a cell viability assay.

For `Cc1cc([N+](=O)[O-])ccc1NS(=O)(=O)c1cc(Cl)ccc1Cl`, the pIC50 [1] was 5.58, the pIC50 [2] was < 4.49 and the pIC50 [3] was < 4.49. It also gave a pIC50 [4] of 5.21, a pIC50 [5] of 5.59 and a pIC50 [6] of 5.58. The pIC50 [7] was 5.22, the pIC50 [8] was 5.26 and the pIC50 [9] was 5.20. For the same compound, the pIC50 [10] was 5.08, the pIC50 [11] was 5.20 and the pIC50 [12] was < 4.49. For the same compound, the pIC50 [13] was < 4.49, the pIC50 [14] was < 4.49 and the pIC50 [15] was 5.50. The pIC50 [16] was < 4.49, the pIC50 [17] was 5.34 and the pIC50 [18] was 4.84. It also gave a pIC50 [19] of 5.22, a pIC50 [20] of 5.94 and a pIC50 [21] of 4.78. The pIC50 [22] was 5.17, the pIC50 [23] was 6.03 and the pIC50 [24] was 4.54. For the same compound, the pIC50 [25] was 5.54, the pIC50 [26] was 4.70 and the pIC50 [27] was 5.66. The pIC50 [28] was 5.29, the pIC50 [29] was 5.24 and the pIC50 [30] was < 4.49. For the same compound, the pIC50 [31] was < 4.49, the pIC50 [32] was 5.54 and the pIC50 [33] was 5.67. The pIC50 [34] was 5.68, the pIC50 [35] was 5.56 and the pIC50 [36] was 4.95. The pIC50 [37] was 5.33, the pIC50 [38] was 4.86 and the pIC50 [39] was 5.21. For the same compound, the pIC50 [40] was < 4.49, the pIC50 [41] was 6.22 and the pIC50 [42] was 5.39. For the same compound, the pIC50 [43] was 5.20, the pIC50 [44] was < 4.49 and the pIC50 [45] was < 4.49. For the same compound, the pIC50 [46] was 5.25 and the pIC50 [47] was 5.52.

For `Oc1ccc2ccccc2c1SSc1c(O)ccc2ccccc12`, the pIC50 [1] was < 4.49, the pIC50 [2] was 5.51 and the pIC50 [3] was < 4.49. The pIC50 [4] was < 4.49, the pIC50 [5] was 5.04 and the pIC50 [6] was < 4.49. For the same compound, the pIC50 [7] was < 4.49, the pIC50 [8] was 4.56 and the pIC50 [9] was < 4.49. For the same compound, the pIC50 [10] was < 4.49, the pIC50 [11] was < 4.49 and the pIC50 [12] was < 4.49. The pIC50 [13] was < 4.49, the pIC50 [14] was < 4.49 and the pIC50 [15] was < 4.49. For the same compound, the pIC50 [16] was 4.91, the pIC50 [17] was < 4.49 and the pIC50 [18] was < 4.49. The pIC50 [19] was 4.55, the pIC50 [20] was < 4.49 and the pIC50 [21] was < 4.49. The pIC50 [22] was < 4.49, the pIC50 [23] was 4.53 and the pIC50 [24] was < 4.49. The pIC50 [25] was 4.57, the pIC50 [26] was < 4.49 and the pIC50 [27] was < 4.49. For the same compound, the pIC50 [28] was 5.69, the pIC50 [29] was < 4.49 and the pIC50 [30] was < 4.49. The pIC50 [31] was < 4.49, the pIC50 [32] was < 4.49 and the pIC50 [33] was < 4.49. The pIC50 [34] was < 4.49, the pIC50 [35] was 5.45 and the pIC50 [36] was < 4.49. The pIC50 [37] was 5.09, the pIC50 [38] was < 4.49 and the pIC50 [39] was < 4.49. The pIC50 [40] was < 4.49, the pIC50 [41] was 4.74 and the pIC50 [42] was 4.77. The pIC50 [43] was < 4.49, the pIC50 [44] was < 4.49 and the pIC50 [45] was < 4.49. For the same compound, the pIC50 [46] was 4.73 and the pIC50 [47] was < 4.49.
